Data reported in patent publication US9265810B2, “Pharmaceutical composition and methods for modulating immune system, preventing, pretreating and/or treating cancers” (Hong Kong Baptist University, priority 2013, dated 2016).

Test system: 4T1 murine mammary cancer cells
Experimental: In this example, the average body weight of mice is 20 g; and the doses of Taxol and RAP are 20 mg/kg, and 40 mg/kg, respectively.

SMILES: CC(=O)O[C@H]1C(=O)[C@@]2(C)[C@H]([C@H](OC(=O)c3ccccc3)[C@]3(O)C[C@H](OC(=O)[C@H](O)[C@@H](NC(=O)c4ccccc4)c4ccccc4)C(C)=C1C3(C)C)[C@]1(OC(C)=O)CO[C@@H]1C[C@@H]2O [Taxol, paclitaxel]
- survival rate at Day 55 (Day 55): 30%
- anticancer effect compared to control group (RAP 40 mg/kg/day gavage since day 0, Taxol 20 mg/kg/week i.p. since day 17, tumor cells at day 7): significant anticancer effect
- death at day 50 (day 50, when all the mice of Control group died): no death occurred
